How the values were obtained:
Settings in all cases: 48 h
[1] = test system: SEM cells; test: AUC of viability dose-response curve (% viability x log10 dose units); higher = less sensitive
Summary of the method: (§1)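 Library compounds in DMSO were applied for 48 h at 37°C at 11 threefold doses (47 μM to 0.79 nM) to medium-adapted leukemia cells in 1536-well plates holding 500 or 1000 cells/well. Luminescence from CellTiter-Glo One was normalised plate by plate against DMSO and cell-free wells. Area under the curve came from trapezoidal integration of a log-logistic fit, after scaling curves that rose above full viability and discarding those that failed quality control. The fit had four parameters and used log10 doses.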

[2] = test system: NOMO1; test: as above
Summary of the method: as §1

[3] = test system: P12-Ichikawa; test: as above
Summary of the method: as §1

[4] = test system: SEM cells; test: cell viability relative to DMSO control; higher = less cytotoxic
Summary of the method: (§2)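 Library compounds in DMSO were pin-dosed in an 11-point threefold series (47 μM to 0.79 nM) onto leukemia cells in 1536-well plates (5 μl). Plates held 500 cells/well of NOMO1 or SEM or 1000 cells/well of P12-Ichikawa, each adapted for at least four passages in each medium. Luminescence was read with CellTiter-Glo One after 48 h at 37°C. Viability means the per-plate percentage relative to DMSO wells, using cell-free wells as background.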

[5] = test system: NOMO1; test: as above
Summary of the method: as §2

[6] = test system: P12-Ichikawa; test: as above
Summary of the method: as §2

COC1=CC(c2cc3ccccc3[nH]2)=N/C1=C/c1[nH]c(C)cc1C
AUC of viability dose-response curve
Settings | [1] | [2] | [3]
HPLM + 10% dialyzed FBS | 436 | 463 | 455
RPMI 5 mM glucose + 10% FBS | 420 | 470 | 450
RPMI 5 mM glucose + 10% dialyzed FBS | 391 | 448 | 452

CN1CCN(c2ncc(-c3cc(Cl)cc(Cl)c3Cl)c(N)n2)CC1
AUC of viability dose-response curve
Settings | HPLM + 10% dialyzed FBS | RPMI 5 mM glucose + 10% FBS | RPMI 5 mM glucose + 10% dialyzed FBS
[1] | 467 | 459 | 450
[2] | 337 | 305 | 341

cell viability [%], [4]
Settings | RPMI 5 mM glucose + 10% FBS | RPMI 5 mM glucose + 10% dialyzed FBS
0.000781 µM | 111 | 106
0.00234 µM | 117 | 118
0.00702 µM | 133 | 117
0.0211 µM | 137 | 133
0.0632 µM | 135 | 139
0.19 µM | 135 | 135
0.569 µM | 126 | 150
1.71 µM | 135 | 141
5.12 µM | 155 | 144
15.4 µM | 138 | 141
46.1 µM | 132 | 132

C[C@@H]1C[C@@H]([C@H](O)CC2CC(=O)NC(=O)C2)C(=O)[C@@H](C)C1
AUC of viability dose-response curve
Settings | [1] | [2] | [3]
HPLM + 10% dialyzed FBS | 279 | 315 | 312
RPMI 5 mM glucose + 10% FBS | 268 | 337 | 288
RPMI 5 mM glucose + 10% dialyzed FBS | 295 | 323 | 299

CN1CCN2c3ccccc3Cc3ccccc3C2C1 (stereo not drawn)
AUC of viability dose-response curve
Settings | [1] | [2] | [3]
HPLM + 10% dialyzed FBS | 467 | 433 | 453
RPMI 5 mM glucose + 10% FBS | 463 | 474 | 441
RPMI 5 mM glucose + 10% dialyzed FBS | 453 | 472 | 466

Clc1ccc(C(Cn2ccnc2)OCc2c(Cl)cccc2Cl)c(Cl)c1 (stereo not drawn)
AUC of viability dose-response curve
Settings | [1] | [2] | [3]
HPLM + 10% dialyzed FBS | 462 | 466 | 474
RPMI 5 mM glucose + 10% FBS | 471 | 468 | 466
RPMI 5 mM glucose + 10% dialyzed FBS | 467 | 468 | 468

[4], HPLM + 10% dialyzed FBS
Settings | cell viability [%]
0.000781 µM | 109
0.00234 µM | 105
0.00702 µM | 121
0.0211 µM | 107
0.0632 µM | 117
0.19 µM | 125
0.569 µM | 130
1.71 µM | 117
5.12 µM | 121
15.4 µM | 114
46.1 µM | 117

CC1(C)[C@H](C(=O)O)N2C(=O)C[C@H]2[S+]1(=O)[O-]
AUC of viability dose-response curve
Settings | [1] | [2] | [3]
HPLM + 10% dialyzed FBS | 472 | 396 | 468
RPMI 5 mM glucose + 10% FBS | 468 | 411 | 470
RPMI 5 mM glucose + 10% dialyzed FBS | 472 | 420 | 469

Cc1oncc1C(=O)Nc1ccc(C(F)(F)F)cc1
AUC of viability dose-response curve
Settings | [1] | [2] | [3]
HPLM + 10% dialyzed FBS | 471 | 458 | 461
RPMI 5 mM glucose + 10% FBS | 468 | 461 | 454
RPMI 5 mM glucose + 10% dialyzed FBS | 465 | 422 | 459

C/C=C(\C)C(=O)N[C@@H](c1ccccc1)[C@@H](O)C(=O)O[C@H]1C[C@@]2(O)[C@@H](OC(=O)c3ccccc3)[C@@H]3[C@]4(OC(C)=O)CO[C@@H]4C[C@H](O)[C@@]3(C)C(=O)[C@H](OC(C)=O)C(=C1C)C2(C)C
AUC of viability dose-response curve
Settings | HPLM + 10% dialyzed FBS | RPMI 5 mM glucose + 10% FBS | RPMI 5 mM glucose + 10% dialyzed FBS
[1] | 104 | 85.3 | 87.7
[3] | 102 | 85.3 | 130

cell viability [%]
Settings | [4] | [5] | [6]
HPLM + 10% dialyzed FBS, 0.000781 µM | 34 | 25.1 | 45.3
HPLM + 10% dialyzed FBS, 0.00234 µM | 24.3 | 23.3 | 23.3
HPLM + 10% dialyzed FBS, 0.00702 µM | 33.2 | 26.8 | 25.7
HPLM + 10% dialyzed FBS, 0.0211 µM | 20.6 | 30.3 | 15.9
HPLM + 10% dialyzed FBS, 0.0632 µM | 19.2 | 29.7 | 22.2
HPLM + 10% dialyzed FBS, 0.19 µM | 19.8 | 27.4 | 19
HPLM + 10% dialyzed FBS, 0.569 µM | 14.9 | 23.4 | 21.4
HPLM + 10% dialyzed FBS, 1.71 µM | 19.6 | 26.9 | 20.3
HPLM + 10% dialyzed FBS, 5.12 µM | 19.9 | 24.1 | 19
HPLM + 10% dialyzed FBS, 15.4 µM | 15.9 | 28.9 | 19
HPLM + 10% dialyzed FBS, 46.1 µM | 20.5 | 20.7 | 14.2
RPMI 5 mM glucose + 10% FBS, 0.000781 µM | 45.4 | 38.9 | 46.4
RPMI 5 mM glucose + 10% FBS, 0.00234 µM | 22.3 | 13.2 | 20.9
RPMI 5 mM glucose + 10% FBS, 0.00702 µM | 23.3 | 17.4 | 25.7
RPMI 5 mM glucose + 10% FBS, 0.0211 µM | 18.4 | 13.8 | 13.8
RPMI 5 mM glucose + 10% FBS, 0.0632 µM | 14.1 | 14.7 | 15.1
RPMI 5 mM glucose + 10% FBS, 0.19 µM | 15.5 | 14.3 | 17.2
RPMI 5 mM glucose + 10% FBS, 0.569 µM | 15.4 | 13 | 16.8
RPMI 5 mM glucose + 10% FBS, 1.71 µM | 14.9 | 15.6 | 16.6
RPMI 5 mM glucose + 10% FBS, 5.12 µM | 14.3 | 12.4 | 13
RPMI 5 mM glucose + 10% FBS, 15.4 µM | 12.5 | 11.3 | 13
RPMI 5 mM glucose + 10% FBS, 46.1 µM | 12.2 | 9.52 | 10.6
RPMI 5 mM glucose + 10% dialyzed FBS, 0.000781 µM | 32.4 | 47.4 | 49.5
RPMI 5 mM glucose + 10% dialyzed FBS, 0.00234 µM | 26.1 | 17.8 | 27.8
RPMI 5 mM glucose + 10% dialyzed FBS, 0.00702 µM | 25 | 21.3 | 32.8
RPMI 5 mM glucose + 10% dialyzed FBS, 0.0211 µM | 17.5 | 20.2 | 23
RPMI 5 mM glucose + 10% dialyzed FBS, 0.0632 µM | 16.2 | 17.5 | 23
RPMI 5 mM glucose + 10% dialyzed FBS, 0.19 µM | 13.6 | 20.3 | 23.4
RPMI 5 mM glucose + 10% dialyzed FBS, 0.569 µM | 13.1 | 17.2 | 30.4
RPMI 5 mM glucose + 10% dialyzed FBS, 1.71 µM | 14.7 | 16.1 | 28.5
RPMI 5 mM glucose + 10% dialyzed FBS, 5.12 µM | 16.6 | 19.8 | 24.6
RPMI 5 mM glucose + 10% dialyzed FBS, 15.4 µM | 15.5 | 21.3 | 24.8
RPMI 5 mM glucose + 10% dialyzed FBS, 46.1 µM | 16.2 | 16.6 | 21.1

O=C(Nc1nc2cccc(-c3ccc(CN4CC[S+](=O)([O-])CC4)cc3)n2n1)C1CC1
AUC of viability dose-response curve
Settings | [1] | [2] | [3]
HPLM + 10% dialyzed FBS | 441 | 440 | 455
RPMI 5 mM glucose + 10% FBS | 446 | 449 | 454
RPMI 5 mM glucose + 10% dialyzed FBS | 432 | 444 | 455

cell viability [%], [4]
Settings | RPMI 5 mM glucose + 10% FBS | RPMI 5 mM glucose + 10% dialyzed FBS
0.000781 µM | 111 | 120
0.00234 µM | 133 | 125
0.00702 µM | 120 | 109
0.0211 µM | 124 | 126
0.0632 µM | 136 | 130
0.19 µM | 146 | 152
0.569 µM | 130 | 133
1.71 µM | 121 | 124
5.12 µM | 103 | 90.1
15.4 µM | 107 | 94.6
46.1 µM | 21.3 | 31.1

CN(C)CC(=O)N1CCC(CC1)C2=CC=C(NC(=O)C3=NC(=C[NH]3)C#N)C(=C2)\C4=C\CCCC4
AUC of viability dose-response curve
Settings | [1] | [2] | [3]
HPLM + 10% dialyzed FBS | 359 | 458 | 467
RPMI 5 mM glucose + 10% FBS | 358 | 454 | 463
RPMI 5 mM glucose + 10% dialyzed FBS | 348 | 456 | 443
